Laboratory results published in patent US12590071B2, “Hydrazone derivative in which terminal amine group is substituted with aryl group or heteroaryl group, and use thereof” (KOREA INSTITUTE OF SCIENCE AND TECHNOLOGY, priority 2018, dated 2026).

Columns and labels:
CYP2C19 = biological target: T1, CYP2C19 (Homo sapiens, UniProt P33261); experiment: Inhibition of CYP coenzyme activity in human liver microsomes; assay type: in vitro ADME; conditions: compound 10 PM (so in the source); human liver microsomes 0.25 mg/mL; substrate S-mephenytoin; 15 minutes
T1 construct: human liver microsomes (0.25 mg/mL); from tissue; host or cells: human liver microsomes
T1 sequence (P33261 whole entry): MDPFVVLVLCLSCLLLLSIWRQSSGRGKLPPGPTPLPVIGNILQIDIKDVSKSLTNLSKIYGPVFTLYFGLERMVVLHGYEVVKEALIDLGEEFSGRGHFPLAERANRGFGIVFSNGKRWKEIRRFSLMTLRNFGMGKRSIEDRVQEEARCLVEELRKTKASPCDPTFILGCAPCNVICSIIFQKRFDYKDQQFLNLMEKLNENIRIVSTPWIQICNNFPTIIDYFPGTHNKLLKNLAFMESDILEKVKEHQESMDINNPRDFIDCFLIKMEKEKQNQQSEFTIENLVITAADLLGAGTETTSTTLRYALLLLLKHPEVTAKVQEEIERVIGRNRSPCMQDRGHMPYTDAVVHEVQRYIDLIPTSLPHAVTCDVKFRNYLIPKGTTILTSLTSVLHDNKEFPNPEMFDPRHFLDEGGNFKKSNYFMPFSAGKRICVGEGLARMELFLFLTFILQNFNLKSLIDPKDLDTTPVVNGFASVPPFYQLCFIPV
Protocol: (§1) 5 The inhibition effects of CYP coenzyme activity by the compounds prepared according to Examples 1 to 171 was confirmed. Specifically, human liver microsomes (0.25 mg/mL), a 0.1 M phosphate buffer solution (pH 7.4), substrate drug cocktails (phenacetin 50 μM, diclofenac 10 μM, S-mephenytoin 100 μM, dextromethorphan 5 μM, and midazolam 2.5 μM) of five kinds of drug metabolism enzymes, and the compounds with a concentration of 0 μM or 10 PM were added, respectively. Then the mixture was cultured in advance at 37° C. for 5 minutes, and then further cultured at 37° C. for 15 minutes together with the addition of an NADPH generation system solution. Thereafter, a reaction was terminated by adding an acetonitrile solution containing an internal standard material (terfenadine), centrifugal separation (14,000 rpm, 4° C.) was performed for 5 minutes, and then a supernatant was injected into an LC-MS/MS system. Metabolites of the substrate drugs were simultaneously analyzed to evaluate the drug metabolism inhibition ability.
(§2) Metabolites of each CYP coenzyme indicator drug generated through the reaction were analyzed using the Shimadzu Nexera XR system and TSQ vantage (Thermo). Kinetex C18 (2.1 mm×100 mm, 2.6 μm, particle size; Phenomenex, USA) was used in an HPLC column, and (A) distilled water containing 0.1% formic acid and (B) acetonitrile containing 0.1% formic acid were used as mobile phases, and the gradient program shown in Table 2 was applied.
(§3) The generated metabolites were quantified using an MRM (multiple reaction monitoring) quantification mode, and Xcalibur (version 1.6.1) was used for data analysis.

CYP1A2 = biological target: T2, CYP1A2 (Homo sapiens, UniProt P05177); experiment: as above; assay type: in vitro ADME; conditions: compound 10 PM (so in the source); human liver microsomes 0.25 mg/mL; substrate phenacetin; 15 minutes
T2 construct: human liver microsomes (0.25 mg/mL); from tissue; host or cells: human liver microsomes
T2 sequence (P05177 1-516): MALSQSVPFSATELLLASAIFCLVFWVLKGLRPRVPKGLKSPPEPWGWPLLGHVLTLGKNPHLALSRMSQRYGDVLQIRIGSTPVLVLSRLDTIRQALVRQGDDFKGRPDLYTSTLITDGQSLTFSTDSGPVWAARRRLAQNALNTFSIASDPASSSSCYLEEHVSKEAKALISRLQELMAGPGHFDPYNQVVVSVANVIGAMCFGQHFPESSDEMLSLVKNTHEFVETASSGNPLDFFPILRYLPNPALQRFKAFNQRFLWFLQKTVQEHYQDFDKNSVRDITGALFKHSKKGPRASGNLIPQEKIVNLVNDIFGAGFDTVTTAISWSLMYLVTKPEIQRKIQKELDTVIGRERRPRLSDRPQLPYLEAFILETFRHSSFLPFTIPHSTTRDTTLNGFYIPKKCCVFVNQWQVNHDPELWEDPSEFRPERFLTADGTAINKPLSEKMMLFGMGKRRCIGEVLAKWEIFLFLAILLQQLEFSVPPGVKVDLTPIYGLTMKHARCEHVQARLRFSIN
Protocol: as §1, §2, §3

CYP2D6 = biological target: T3, CYP2D6 (Homo sapiens, UniProt P10635); experiment: as above; assay type: in vitro ADME; conditions: compound 10 PM (so in the source); human liver microsomes 0.25 mg/mL; substrate dextromethorphan; 15 minutes
T3 construct: human liver microsomes (0.25 mg/mL); from tissue; host or cells: human liver microsomes
T3 sequence (P10635 whole entry): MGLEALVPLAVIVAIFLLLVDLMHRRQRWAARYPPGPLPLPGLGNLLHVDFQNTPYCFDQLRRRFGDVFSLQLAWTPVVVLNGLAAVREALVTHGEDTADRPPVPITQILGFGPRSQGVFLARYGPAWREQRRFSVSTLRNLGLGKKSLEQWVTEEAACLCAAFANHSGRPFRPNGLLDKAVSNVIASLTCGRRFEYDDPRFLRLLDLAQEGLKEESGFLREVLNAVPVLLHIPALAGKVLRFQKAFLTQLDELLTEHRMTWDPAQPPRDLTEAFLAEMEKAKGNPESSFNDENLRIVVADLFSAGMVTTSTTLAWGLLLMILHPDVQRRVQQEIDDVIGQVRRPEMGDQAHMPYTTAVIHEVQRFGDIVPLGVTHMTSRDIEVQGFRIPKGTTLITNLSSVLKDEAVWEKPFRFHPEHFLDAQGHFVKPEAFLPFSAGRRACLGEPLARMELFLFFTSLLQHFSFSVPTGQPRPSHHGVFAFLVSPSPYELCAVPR
Protocol: as §1, §2, §3

CYP2C9 = biological target: T4, CYP2C9 (Homo sapiens, UniProt P11712); experiment: as above; assay type: in vitro ADME; conditions: compound 10 PM (so in the source); human liver microsomes 0.25 mg/mL; substrate diclofenac; 15 minutes
T4 construct: human liver microsomes (0.25 mg/mL); from tissue; host or cells: human liver microsomes
T4 sequence (P11712 whole entry): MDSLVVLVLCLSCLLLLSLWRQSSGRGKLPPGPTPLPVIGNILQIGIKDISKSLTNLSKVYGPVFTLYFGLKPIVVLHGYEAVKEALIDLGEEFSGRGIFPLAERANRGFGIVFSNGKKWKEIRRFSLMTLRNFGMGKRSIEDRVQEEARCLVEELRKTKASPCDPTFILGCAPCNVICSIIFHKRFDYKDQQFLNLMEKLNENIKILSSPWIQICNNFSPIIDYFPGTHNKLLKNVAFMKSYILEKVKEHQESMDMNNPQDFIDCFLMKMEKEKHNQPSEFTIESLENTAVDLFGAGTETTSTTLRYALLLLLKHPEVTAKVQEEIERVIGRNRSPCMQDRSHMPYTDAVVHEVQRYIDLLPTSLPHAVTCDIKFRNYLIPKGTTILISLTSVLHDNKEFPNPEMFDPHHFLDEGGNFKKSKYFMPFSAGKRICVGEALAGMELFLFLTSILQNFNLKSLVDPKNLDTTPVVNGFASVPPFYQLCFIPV
Protocol: as §1, §2, §3

CYP3A4 = biological target: T5, CYP3A4 (Homo sapiens, UniProt P08684); experiment: as above; assay type: in vitro ADME; parameters: scale not given here; conditions: compound 10 PM (so in the source); human liver microsomes 0.25 mg/mL; substrate midazolam; 15 minutes
T5 construct: human liver microsomes (0.25 mg/mL); from tissue; host or cells: human liver microsomes
T5 sequence (P08684 whole entry): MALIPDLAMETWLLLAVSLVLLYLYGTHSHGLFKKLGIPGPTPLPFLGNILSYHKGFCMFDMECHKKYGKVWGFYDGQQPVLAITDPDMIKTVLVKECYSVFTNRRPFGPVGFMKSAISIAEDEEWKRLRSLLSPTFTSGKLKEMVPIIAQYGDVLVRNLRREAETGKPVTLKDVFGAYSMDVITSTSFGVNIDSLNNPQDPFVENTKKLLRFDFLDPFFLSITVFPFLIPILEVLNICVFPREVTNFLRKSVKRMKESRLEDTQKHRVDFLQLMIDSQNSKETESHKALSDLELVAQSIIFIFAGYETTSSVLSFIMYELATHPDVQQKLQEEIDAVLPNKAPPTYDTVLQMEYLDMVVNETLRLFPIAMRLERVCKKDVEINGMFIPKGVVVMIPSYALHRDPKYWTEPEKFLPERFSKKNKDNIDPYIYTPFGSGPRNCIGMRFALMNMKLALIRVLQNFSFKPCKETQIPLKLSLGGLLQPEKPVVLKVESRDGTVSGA
Protocol: as §1, §2, §3

[1] = Liver microsomal stability (rat); assay type: in vitro ADME; conditions: amount of substrate remaining; 1 μM, 0.25 mg/mL microsomes, 37° C., 30 minutes
Protocol: (§4) The liver microsomal stability of the compounds prepared according to Examples 1 to 171 was confirmed. Specifically, four kinds of liver microsomes (human, dog, rat, and mouse, each 0.25 mg/mL), a 0.1 M phosphate buffer solution (pH 7.4), and the compounds with a concentration of 1 μM were added, respectively. Then the mixture was cultured in advance at 37° C. for 5 minutes, and then further cultured at 37° C. for 30 minutes together with the addition of an NADPH generation system solution. Thereafter, a reaction was terminated by adding an acetonitrile solution containing an internal standard material (chloropropamide), centrifugal separation (14,000 rpm, 4° C.) was performed for 5 minutes, and then a supernatant was injected into an LC-MS/MS system. The substrate drugs were analyzed to evaluate the metabolic stability for 8 kinds of compounds.
(§5) The amount of substrate remaining through the reaction was analyzed using the Shimadzu Nexera XR system and TSQ vantage (Thermo). Kinetex XB-C18 (2.1 mm×100 mm, 2.6 μm, particle size; Phenomenex, USA) was used in an HPLC column, and (A) distilled water containing 0.1% formic acid and (B) acetonitrile containing 0.1% formic acid were used as mobile phases. Analyst software (version 1.6.3) and Xcalibur (version 1.6.1) were used for data analysis.

[2] = Liver microsomal stability (human); assay type: in vitro ADME; conditions: amount of substrate remaining; 1 μM, 0.25 mg/mL microsomes, 37° C., 30 minutes
Protocol: as §4, §5

[3] = Liver microsomal stability (mouse); assay type: in vitro ADME; conditions: amount of substrate remaining; 1 μM, 0.25 mg/mL microsomes, 37° C., 30 minutes
Protocol: as §4, §5

tau protein = biological target: T6, tau protein (Homo sapiens, UniProt P10636); experiment: Tau protein aggregation inhibition in tau-BiFC cell model; assay type: cell-based; conditions: tau-BiFC cells treated together with Forskolin, 48 hours
T6 construct: expressed in transfected cells
T6 sequence (P10636 2-441 isoform P10636-8 limits assumed): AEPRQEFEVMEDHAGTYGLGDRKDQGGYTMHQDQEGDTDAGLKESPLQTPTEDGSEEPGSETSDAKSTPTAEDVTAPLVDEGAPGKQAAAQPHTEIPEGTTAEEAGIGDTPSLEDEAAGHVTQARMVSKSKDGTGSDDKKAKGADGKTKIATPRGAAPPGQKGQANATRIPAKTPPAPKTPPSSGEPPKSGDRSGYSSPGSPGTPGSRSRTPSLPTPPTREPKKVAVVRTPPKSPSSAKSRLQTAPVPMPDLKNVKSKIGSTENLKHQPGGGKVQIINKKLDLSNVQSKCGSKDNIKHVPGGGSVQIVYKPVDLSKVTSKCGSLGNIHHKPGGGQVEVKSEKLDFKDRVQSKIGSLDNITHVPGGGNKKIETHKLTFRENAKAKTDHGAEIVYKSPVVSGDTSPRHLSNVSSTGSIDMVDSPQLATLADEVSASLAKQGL
Protocol: (§6) In order to select new tau protein aggregation-inhibiting materials, tau-BiFC cell models, in which it is easy to observe the formation of tau oligomers in living cells, were used. […] After 48 hours, intracellular nuclei were stained using Hoechst (treatment concentration 2 μg/mL), and BiFC fluorescence intensity was automatically quantified using Operetta (PerkinElmer) to count stained nuclei in each well from the total well plates. […] Further, the degree of cytotoxicity induced by the newly synthesized compound is also based on the 100% survival rate of the group treated with Forskolin alone, and the cytotoxicity value of the compound was calculated by the equation “number of stained nuclei in the group treated with the compound/number of stained nuclei in the group treated with Forskolin x 100”.
(§7) In order to evaluate dose-dependent tau protein aggregation inhibition effects of the compounds selected according to Experimental Example 1, the selected compounds were treated in tau-BiFC cells at concentrations of 0.03 µM, […], 0.3 μM, 1 μM, 3 μM, 10 μM, and 30 μM, respectively, together with Forskolin (treatment concentration 30 µM) as a tau protein aggregation inducing material. After 48 hours, tau protein aggregation reaction and cytotoxicity degree were analyzed by observing cell images. The IC50 and toxicity of the compounds were analyzed by nonlinear regression analysis of prism software (Graph Pad).

Tau-BiFC cells = experiment: Cytotoxicity (cell survival rate) in tau-BiFC cells; conditions: group treated with Forskolin alone = 100%
Protocol: as §6, §7

[4] = Liver microsomal stability (dog); assay type: in vitro ADME; conditions: amount of substrate remaining; 1 μM, 0.25 mg/mL microsomes, 37° C., 30 minutes
Protocol: as §4, §5

SMILES: COc1cnc(-c2ccc(NN=C(C#N)C#N)cc2)nc1 [Compound 8, (4-(5-methoxypyrimidin-2-yl)-phenyl)carbonohydrazonoyl dicyanide]
- inhibition effects of CYP coenzyme activity, CYP2C19 (CYP2C19): >100
- inhibition effects of CYP coenzyme activity, CYP1A2 (CYP1A2): 94.1
- inhibition effects of CYP coenzyme activity, CYP2D6 (CYP2D6): >100
- inhibition effects of CYP coenzyme activity, CYP2C9 (CYP2C9): 85.1
- inhibition effects of CYP coenzyme activity, CYP3A4 (CYP3A4): >100
- liver microsomal stability, Rat (%) [1]: 40.7%
- liver microsomal stability, Human (%) [2]: 80.9%
- liver microsomal stability, Mouse (%) [3]: 83.7%
- IC50 (tau protein): 20 nM
- Cell survival rate (% @ 10 μM) (Tau-BiFC cells): 107.8%
- liver microsomal stability, Dog (%) [4]: 96%

SMILES: Cc1ncsc1-c1ccc(NN=C(C#N)C#N)cc1 [Compound 12, (4-(4-methylthiazol-5-yl)phenyl)carbonohydrazonoyl dicyanide]
- inhibition effects of CYP coenzyme activity, CYP2C19 (CYP2C19): 81.3
- inhibition effects of CYP coenzyme activity, CYP1A2 (CYP1A2): 88.1
- inhibition effects of CYP coenzyme activity, CYP2D6 (CYP2D6): 87.8
- inhibition effects of CYP coenzyme activity, CYP2C9 (CYP2C9): 7.4
- inhibition effects of CYP coenzyme activity, CYP3A4 (CYP3A4): 91.6
- liver microsomal stability, Rat (%) [1]: 25.8%
- liver microsomal stability, Human (%) [2]: 52.2%
- liver microsomal stability, Mouse (%) [3]: 45.2%
- IC50 (tau protein): 30 nM
- Cell survival rate (% @ 10 μM) (Tau-BiFC cells): 119.3%
- liver microsomal stability, Dog (%) [4]: 81.6%

SMILES: N#CC(C#N)=NNc1ccc(-n2cccn2)cc1 [Compound 35, (4-(1H-pyrazol-1-yl)phenyl)carbonohydrazonoyl dicyanide]
- inhibition effects of CYP coenzyme activity, CYP2C19 (CYP2C19): >100
- inhibition effects of CYP coenzyme activity, CYP1A2 (CYP1A2): 99.9
- inhibition effects of CYP coenzyme activity, CYP2D6 (CYP2D6): >100
- inhibition effects of CYP coenzyme activity, CYP2C9 (CYP2C9): 81.3
- inhibition effects of CYP coenzyme activity, CYP3A4 (CYP3A4): >100
- liver microsomal stability, Rat (%) [1]: 56.4%
- liver microsomal stability, Human (%) [2]: 82.2%
- liver microsomal stability, Mouse (%) [3]: 10.7%
- IC50 (tau protein): 1700 nM
- Cell survival rate (% @ 10 μM) (Tau-BiFC cells): 100%
- liver microsomal stability, Dog (%) [4]: 24.2%

SMILES: Cc1cnn(-c2ccc(NN=C(C#N)C#N)cc2)c1 [Compound 36, (4-(4-methyl-1H-pyrazol-1-yl)phenyl)carbonohydrazonoyl dicyanide]
- inhibition effects of CYP coenzyme activity, CYP2C19 (CYP2C19): >100
- inhibition effects of CYP coenzyme activity, CYP1A2 (CYP1A2): 86
- inhibition effects of CYP coenzyme activity, CYP2D6 (CYP2D6): 98.6
- inhibition effects of CYP coenzyme activity, CYP2C9 (CYP2C9): 60.7
- inhibition effects of CYP coenzyme activity, CYP3A4 (CYP3A4): >100
- liver microsomal stability, Rat (%) [1]: 20.1%
- liver microsomal stability, Human (%) [2]: 65.9%
- liver microsomal stability, Mouse (%) [3]: 37.9%
- IC50 (tau protein): 53 nM
- Cell survival rate (% @ 10 μM) (Tau-BiFC cells): 99.3%
- liver microsomal stability, Dog (%) [4]: 60.6%

SMILES: Cc1ccnc(-c2ccc(NN=C(C#N)C#N)c(F)c2)n1 [Compound 37, (2-fluoro-4-(4-methylpyrimidin-2-yl)phenyl)carbonohydrazonoyl dicyanide]
- inhibition effects of CYP coenzyme activity, CYP2C19 (CYP2C19): 100
- inhibition effects of CYP coenzyme activity, CYP1A2 (CYP1A2): 78.1
- inhibition effects of CYP coenzyme activity, CYP2D6 (CYP2D6): >100
- inhibition effects of CYP coenzyme activity, CYP2C9 (CYP2C9): 56.9
- inhibition effects of CYP coenzyme activity, CYP3A4 (CYP3A4): >100
- liver microsomal stability, Rat (%) [1]: 25.9%
- liver microsomal stability, Human (%) [2]: 55.7%
- liver microsomal stability, Mouse (%) [3]: 32.7%
- IC50 (tau protein): 1340 nM
- Cell survival rate (% @ 10 μM) (Tau-BiFC cells): 88.3%
- liver microsomal stability, Dog (%) [4]: 61%

SMILES: COc1cc(-c2nccc(C)n2)ccc1NN=C(C#N)C#N [Compound 42, (2-methoxy-4-(4-methylpyrimidin-2-yl)phenyl)carbonohydrazonoyl dicyanide]
- inhibition effects of CYP coenzyme activity, CYP2C19 (CYP2C19): 96.2
- inhibition effects of CYP coenzyme activity, CYP1A2 (CYP1A2): 83.6
- inhibition effects of CYP coenzyme activity, CYP2D6 (CYP2D6): >100
- inhibition effects of CYP coenzyme activity, CYP2C9 (CYP2C9): 88.8
- inhibition effects of CYP coenzyme activity, CYP3A4 (CYP3A4): >100
- liver microsomal stability, Rat (%) [1]: 46.5%
- liver microsomal stability, Human (%) [2]: 53.4%
- liver microsomal stability, Mouse (%) [3]: 47.9%
- IC50 (tau protein): 3000 nM
- Cell survival rate (% @ 10 μM) (Tau-BiFC cells): 128%
- liver microsomal stability, Dog (%) [4]: 30.7%
